Data reported in US8765808B2, “Treatment or prevention of cancer and precancerous disorders” (CHS Pharma, Inc., priority 2005, dated 2014).
Where two headings read alike, the source gives them in different places.

Columns and labels:
[1] = tested on: RKO colon cancer cell line; experiment: MTS cell viability after pretreatment and oxidative stress, RKO colon cancer cells; type: cell-based, human; details: other NSAIDs at comparable active concentrations, compared to sulindac
Procedure: (§1) RKO is a human colon carcinoma cell line developed by Michael Brattain [Brattain, 1984]. […] The cells were maintained in minimum essential medium (Eagle) supplemented with 2 mM L-glutamine, Earle's BSS containing 1.5 g/L sodium bicarbonate, 0.1 mM non-essential amino acids, 1.0 mM sodium pyruvate and 10% fetal bovine serum.
Experiments were performed with the RKO colon cancer cells that were pretreated with 500 μM sulindac using TBHP.

[2] = tested on: SCC-25 squamous cell skin cancer cell line; experiment: MTS cell viability after pretreatment and oxidative stress, SCC skin cancer cells; type: cell-based, human; details: for sensitizing skin cancer cells to killing by TBHP: other NSAIDs at comparable active concentrations, compared to sulindac; for cancer killing effect of epimers, SCC cells: 500 μM 24 hours, then TBHP 2 hours (FIG. 24); for enhancing the killing of skin cancer cells (SCC-25) when exposed to TBHP: 24 hr pretreatment with 500 μM sulindac sulfone, 500 μM SMO or 50 μM sulindac sulfide, TBHP 2 hr (FIG. 14)
Procedure: as §1, with “SCC-25” for “RKO”, “squamous cell” for “colon”, “J G Rheinwald [Rheinwald, 1981].” for “Michael Brattain [Brattain, 1984].”
The experimental approach was to pretreat SCC cells with sulindac for 24 hr prior to exposure to TBHP for 2 hr. Sulindac (Sigma; S-8139) was freshly prepared as a 1M stock solution in 1M Tris.Cl, pH 8.0. SCC cells were suspended in culture medium containing 10% fetal bovine serum at a cell density of 6×10^5 cells/ml. Cell suspensions containing 500 μM sulindac or no sulindac (Control) were plated in 96 well microtiter plates with a total of 6×10^4 cells per well. The plates were incubated for 24 hr at 37° C. in a 5% CO2 incubator. The culture medium was then removed and the cells washed once with fresh culture medium without serum. After removal of the wash solution, fresh culture medium without serum that contained the indicated final concentration of TBHP was added to the cells for 2 hrs. Serum was omitted from the medium during the two-hour exposure to TBHP since TBHP may be rapidly depleted in the presence of serum.

Normal lung cells = experiment: Conversion of sulindac epimers to sulindac sulfide in whole cells, normal lung; type: in vitro ADME; details: 200 μM epimer, 4 hours; for Amount Formed (sulindac sulfide): serum-free medium
Procedure: (§2) After the incubations, the cells were pelleted by low speed centrifugation and lysed by the addition of 200 μl of 100% acetonitrile, followed by vigorous vortexing. The lysate was centrifuged for 15 minutes at 14,000×g to pellet cell debris. 50 μl of the supernatant was transferred to an HPLC autosampler microvial. The separation of metabolites is carried out on a 4.6×75 mm C18 reverse-phase column. […] The metabolites are detected at a wavelength of 330 nm.
(§3) The cells are incubated with 200 μM R- or S-Sulindac epimer for 4 hours in a defined, serum-free medium (EX-CELL^SM). After incubation, the cells are collected, rinsed and lysed with acetonitrile. The cytosolic contents are separated on a C-18 column.

Cancer Lung cells = experiment: Conversion of sulindac epimers to sulindac sulfide in whole cells, lung cancer; type: in vitro ADME; details: 200 μM epimer, 4 hours, serum-free medium
Procedure: as §2, §3

[3] = tested on: lung carcinoma cell line designated A549; experiment: MTS cell viability after pretreatment and oxidative stress, lung cancer cells
Procedure: Cell viability was determined by the [sequence] 96®-Aqueous One Cell Proliferation Assay (Promega) according to the manufacturer's instructions. The assay utilizes a novel tetrazolium compound (3-(4,5-dimethylthiazol-2-yl)-5-(3-carboxymethoxyphenyl)-2-(4-sulfophenyl)-2H-tetrazolium; MTS) and an electron-coupling reagent (phenazine ethosulfate; PES). Metabolically active cells convert the MTS to a water-soluble formazan by the action of cellular dehydrogenases. The amount of formazan produced is measured by absorbance at 490 nm using a colorimetric microtiter plate reader (BIORAD; Model 2550). Absorbance is directly proportional to the number of viable cells.
Experiments using similar methods were performed with a lung carcinoma cell line designated A549. […] Cells were grown in Ham's F12K medium supplemented with final concentrations of 2 mM L-glutamine, 1.6 g/L sodium bicarbonate and 10% fetal bovine serum. Cultures were maintained between 6×10^3-6×10^4 cells/cm^2 in standard tissue culture flasks. The protocol for pretreatment of cells with 500 μM sulindac followed by a two hour exposure to various concentrations of TBHP was the same as that described for the RKO colon cancer cells.
Following a 24 hr pretreatment with 500 μM sulindac, the cells were washed once to remove the excess sulindac before exposure to TBHP for 2 hr.

[4] = tested on: neonatal rat cardiac myocytes; details: for Amount Formed (sulindac sulfide): Normal Cardiomyocyte, 200 μM epimer, 4 hours, serum-free medium
Procedure: FIG. 23 is a graph showing the metabolic conversion of the R & S epimers of sulindac to the sulfide form in cardiac myocytes. The amount of sulindac sulfide formed by 10^6 cells incubated with 400 μM sulindac, R, S or RS mixture is measured as a function of time of incubation. […] The absorbance was measured at 330 nm.
To inhibit fibroblast growth, 0.1 mM bromodeoxyuridine was included in the medium for the first 3-5 days after plating. Cell cultures are incubated with sulindac or its individual epimers for specified times.
as §2, §3

[5] = tested on: Cancer Skin (skin SCC) cells; details: 200 μM epimer, 4 hours, serum-free medium
Procedure: as §2, §3

HeLa cancer cells = details: 200 μM epimer, 4 hours, serum-free medium
Procedure: as §2, §3

SCC skin cancer cells = experiment: Intracellular ROS by indicator dye fluorescence, SCC skin cancer cells
Procedure: SCC skin cancer cells were plated onto 6-well plates at a cell density of 50-60% confluence. The cultures were pretreated with sulindac (500 uM) for 24 hours followed by the addition of TBHP (100 uM) for two hours. During this period of time, the cell density in the 6-well plates increased to 80-90% confluent.

[6] = tested on: Normal HEK skin cells (human neonatal epidermal keratinocytes); experiment: Intracellular ROS by indicator dye fluorescence, normal HEK skin cells; details: Table 4, alone or after Sul 500 uM
Procedure: Experimental conditions: Normal HEK skin cells plated onto 6-well plates at cell density of 60-70% confluence. Sulindac (0.5 mM)×24 hours (cell density remained about the same) followed by TBHP×2 hours followed by ROS indicator dye (5 μM)×1 hour (Table 1).
Human neonatal epidermal keratinocytes were plated into 6-well plates at a cell density of 60-70% confluence. The cultures were pretreated with sulindac (500 uM) for 34 hours followed by the addition of different concentrations of TBHP for 2 hours. During this period of time, the cell density in the 6-well plates remained the same (there was no increase in cell proliferation). This was followed by the addition of the ROS indicator dye.

[7] = cited from earlier work
[8] = tested on: precancerous growths and/or BCC's; experiment: Topical sulindac gel followed by hydrogen peroxide solution in patients; details: applied alone to the skin condition
[9] = tested on: WM-266-4 Melanoma skin cell line; experiment: MTS cell viability after pretreatment and oxidative stress, melanoma cells; type: cell-based, human; details: sulindac sulfide pretreatment
[10] = Table 2, Sul 0.5 mM 24 hours and/or TBHP 100 μM 2 hours
[11] = Table 3, Sul 500 μM 24 hours and/or TBHP 100 μM 2 hours

What does the source list for `CC(=O)Oc1ccccc1C(=O)O` [Acetylsalicylic acid]?
sensitizing colon cancer cells to killing by TBHP [1]: ineffective; sensitizing skin cancer cells to killing by TBHP [2]: ineffective

Which “R/S (%)” value (Normal lung cells) does the source give for `CC1=C(CC(=O)O)c2cc(F)ccc2/C1=C\c1ccc([S+](C)[O-])cc1` (stereo not shown) [R-epimer, R-sulindac sulfoxide] here?
Its value is 6%.

And the “R/S (%)” value (Normal lung cells; listed as R epimer)?
Its value is < 10%.

And the “Amount Formed (sulindac sulfide)” value (Normal lung cells)?
The value was 2.2 picomoles.

What about the “Amount Formed (sulindac sulfide)” value (Cancer Lung cells) of the same molecule?
The value was 7.5 picomoles.

And the “cancer killing effect of epimers, SCC cells” value [2]?
The value was “comparable in potency to the sulindac racemic mixture”.

And the “cancer killing effect of epimers, lung cancer cells” value [3]?
The value was “comparable in potency to the sulindac racemic mixture”.

And the “Amount Formed (sulindac sulfide)” value [4]?
Its value is 11.6 picomoles.

What about the “conversion to the sulfide compared to the S-epimer” value ([4]; normal cardiac myocytes, 400 μM, time course (FIG. 23)) of the same molecule?
The value was “greater than 10 fold less conversion”.

What about the “Amount Formed (sulindac sulfide)” value [5] of the same molecule?
The value was 35.3 picomoles.

And the “Amount Formed (sulindac sulfide)” value (HeLa cancer cells)?
Its value is 9.3 picomoles.

Which “Amount Formed (sulindac sulfide)” value (Normal lung cells) does the source give for `CC1=C(CC(=O)O)c2cc(F)ccc2/C1=C\c1ccc([S@+](C)[O-])cc1` [S-epimer, S-sulindac sulfoxide] here?
Its value is 35 picomoles.

And the “Amount Formed (sulindac sulfide)” value (Cancer Lung cells)?
The value was 17.7 picomoles.

What about the “cancer killing effect of epimers, SCC cells” value [2] of the same molecule?
The value was “comparable in potency to the sulindac racemic mixture”.

What about the “cancer killing effect of epimers, lung cancer cells” value [3] of the same molecule?
Its value is “comparable in potency to the sulindac racemic mixture”.

And the “Amount Formed (sulindac sulfide)” value [4]?
Its value is 120.9 picomoles.

What about the “Amount Formed (sulindac sulfide)” value [5] of the same molecule?
Its value is 57 picomoles.

What about the “Amount Formed (sulindac sulfide)” value (HeLa cancer cells) of the same molecule?
The value was 7.9 picomoles.

For `CC(C)(C)OO` [TBHP, tert-butyl hydroperoxide], which “% Cells with ROS Uptake by Fluorescence” value (SCC skin cancer cells; [10]) is on record?
The value was 11%.

What about the “fold increase compared to untreated control” value (“fold increase” below) (SCC skin cancer cells; [10]) of the same molecule?
The value was 7 fold.

What about the “% Cells containing ROS” value (SCC skin cancer cells; [11]) of the same molecule?
The value was 11%.

What about the “fold increase” value (SCC skin cancer cells; [11]) of the same molecule?
Its value is 7 fold.

And the “ROS levels in SCC skin cancer cells, agent alone” value (SCC skin cancer cells; sulindac 500 uM or TBHP 100 uM alone)?
Its value is “enhanced the ROS levels”.

And the “viable cells without sulindac pretreatment” value ([3]; 1.5-2.0 mM TBHP, 2 hr, untreated (no sulindac) cells)?
Its value is “approximately 50%”.

And the “% Cells containing ROS” value ([6]; TBHP 200 uM 2 hours)?
The value was 2%.

What about the “fold increase” value ([6]; TBHP 200 uM 2 hours) of the same molecule?
Its value is 0 fold.

And the “% Cells containing ROS” value ([6]; TBHP 400 uM 2 hours)?
The value was 5%.

What about the “fold increase” value ([6]; TBHP 400 uM 2 hours) of the same molecule?
Its value is 2 fold.

What about the “% Cells containing ROS” value ([6]; TBHP 800 uM 2 hours) of the same molecule?
Its value is 60%.

What about the “fold increase” value ([6]; TBHP 800 uM 2 hours) of the same molecule?
Its value is 20 fold.

With `O=C(O)Cc1ccccc1Nc1c(Cl)cccc1Cl` [diclofenac sodium] as the molecule, how does the “sensitizing colon cancer cells to killing by TBHP” value [1] read?
Its value is “ineffective”.

What about the “sensitizing skin cancer cells to killing by TBHP” value [2] of the same molecule?
Its value is “ineffective”.

For `OO` [hydrogen peroxide], which skin irritation ([7]; 3-8% hydrogen peroxide, 24 hours under occlusive dressing, intact and abraded skin, rabbits) is on record?
The skin irritation was “nonirritating”.

What about the skin irritation ([7]; 10% hydrogen peroxide, 4 hour exposure) of the same molecule?
The skin irritation was “slight”.

And the skin irritation ([7]; 35% hydrogen peroxide)?
The skin irritation was “mild”.

What about the “classification as skin irritant by the European Union criteria” value ([7]; hydrogen peroxide solutions of 35% or less, rabbits) of the same molecule?
Its value is “would not be classified as skin irritants”.

What about the “effect on the precancerous or cancerous growth when applied alone” value [8] of the same molecule?
The value was “no effect”.

For `CC(C)Cc1ccc(C(C)C(=O)O)cc1` (stereo not shown) [ibuprofen], which “sensitizing colon cancer cells to killing by TBHP” value [1] is on record?
The value was “ineffective”.

And the “sensitizing skin cancer cells to killing by TBHP” value [2]?
Its value is “ineffective”.

What does the source list for `CSc1ccc(/C=C2/C(C)=C(CC(=O)O)c3cc(F)ccc32)cc1` [sulindac sulfide]?
reducing the cell viability of melanoma cells exposed to TBHP [9]: had activity in reducing the cell viability; enhancing the killing of skin cancer cells (SCC-25) when exposed to TBHP [2]: not effective; reducing the cell viability of lung cancer cells exposed to TBHP ([3]; 250 μM sulindac sulfide 24 hr, TBHP 2 hr (FIG. 15)): had activity in reducing the cell viability

What does the source list for `CC1=C(CC(=O)O)c2cc(F)ccc2/C1=C\c1ccc(S(C)(=O)=O)cc1` [sulindac sulfone]?
enhancing the killing of skin cancer cells (SCC-25) when exposed to TBHP [2]: effective in enhancing the killing; killing effect in all cancer cell studies ([3]; FIG. 15, 500 μM sulindac, 250 μM sulindac sulfone): most potent killing effect

For sulindac methionine sulfoxide [SMO], which “enhancing the killing of skin cancer cells (SCC-25) when exposed to TBHP” value [2] is on record?
The value was “not effective”.
